Results reported in ChEMBL document CHEMBL5321272 (J Med Chem, 2023).
Activity calls are given as the source filed them. No cut-off for these calls is given here.

What was measured:
BaF3 [1] = assay: cells; conditions: Mus musculus, BaF3, 72 h
Description: Antiproliferative activity against mouse BaF3 cells harboring FLT3-ITD-N701K mutation assessed as reduction in cell viability incubated for 72 hrs by CellTiter 96 Aqueous One Solution Cell Proliferation Assay

[2] = target: Receptor-type tyrosine-protein kinase FLT3 (Homo sapiens, UniProt P36888); assay: Inhibition of wild type FLT3 (unknown origin) using peptide substrate TK-S and ATP as substrate incubated for 1 hr by HTRF assay
[3] = target: Ribosomal protein S6 kinase beta-1 (Homo sapiens, UniProt P23443); assay: Inhibition of P70S6K (unknown origin) by HTRF assay
Chain of Ribosomal protein S6 kinase beta-1 (P23443 whole entry): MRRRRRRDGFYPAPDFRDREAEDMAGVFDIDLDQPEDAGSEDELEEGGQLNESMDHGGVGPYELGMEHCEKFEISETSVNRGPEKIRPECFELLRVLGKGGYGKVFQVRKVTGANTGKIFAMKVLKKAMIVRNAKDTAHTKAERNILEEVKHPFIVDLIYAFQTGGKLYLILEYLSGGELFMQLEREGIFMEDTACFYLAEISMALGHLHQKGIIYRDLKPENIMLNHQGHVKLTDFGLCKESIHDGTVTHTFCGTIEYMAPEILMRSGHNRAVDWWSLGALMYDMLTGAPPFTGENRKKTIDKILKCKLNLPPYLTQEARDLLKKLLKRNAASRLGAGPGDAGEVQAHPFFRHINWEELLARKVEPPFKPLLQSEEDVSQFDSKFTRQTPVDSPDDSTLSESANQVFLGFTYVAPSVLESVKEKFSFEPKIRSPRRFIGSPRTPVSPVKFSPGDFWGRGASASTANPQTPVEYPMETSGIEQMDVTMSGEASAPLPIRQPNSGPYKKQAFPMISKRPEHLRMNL

[4] = target: Receptor-type tyrosine-protein kinase FLT3 (Homo sapiens) (UniProt P36888); assay: Inhibition of FLT3 in human MV4-11 cells assessed as inhibition of AKT phosphorylation at Ser473 residue measured after 90 mins by western blot analysis; format: cell-based; conditions: dose 20-100 nM
Chain of Receptor-type tyrosine-protein kinase FLT3 (Homo sapiens) (P36888 whole entry): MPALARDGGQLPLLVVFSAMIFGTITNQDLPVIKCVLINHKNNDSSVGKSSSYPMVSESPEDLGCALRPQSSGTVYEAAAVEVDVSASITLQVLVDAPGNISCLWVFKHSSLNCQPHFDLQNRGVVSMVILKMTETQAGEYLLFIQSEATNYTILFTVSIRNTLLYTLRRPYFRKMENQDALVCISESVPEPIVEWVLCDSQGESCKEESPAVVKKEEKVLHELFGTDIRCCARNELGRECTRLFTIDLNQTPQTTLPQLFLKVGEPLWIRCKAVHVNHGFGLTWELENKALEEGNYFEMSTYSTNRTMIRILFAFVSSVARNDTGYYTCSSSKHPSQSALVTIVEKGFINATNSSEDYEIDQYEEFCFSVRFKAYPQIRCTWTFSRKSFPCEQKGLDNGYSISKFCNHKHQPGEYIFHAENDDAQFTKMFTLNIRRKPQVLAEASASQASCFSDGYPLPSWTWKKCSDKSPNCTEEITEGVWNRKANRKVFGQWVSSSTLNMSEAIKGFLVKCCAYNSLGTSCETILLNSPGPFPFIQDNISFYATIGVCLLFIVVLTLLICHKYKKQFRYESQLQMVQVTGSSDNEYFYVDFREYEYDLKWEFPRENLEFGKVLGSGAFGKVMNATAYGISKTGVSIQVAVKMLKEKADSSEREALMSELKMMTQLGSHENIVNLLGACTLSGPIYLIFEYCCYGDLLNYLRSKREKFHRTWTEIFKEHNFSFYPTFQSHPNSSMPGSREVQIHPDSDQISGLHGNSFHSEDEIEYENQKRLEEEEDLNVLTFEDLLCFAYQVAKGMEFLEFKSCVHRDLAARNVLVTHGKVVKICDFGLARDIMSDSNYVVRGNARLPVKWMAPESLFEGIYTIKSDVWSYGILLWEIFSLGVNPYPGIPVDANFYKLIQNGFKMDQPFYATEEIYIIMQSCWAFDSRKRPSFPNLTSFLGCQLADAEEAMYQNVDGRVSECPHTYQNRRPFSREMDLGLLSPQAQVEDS

[5] = target: T1, Serine/threonine-protein kinase Chk1 (Homo sapiens, UniProt O14757)
T1 sequence (O14757 whole entry): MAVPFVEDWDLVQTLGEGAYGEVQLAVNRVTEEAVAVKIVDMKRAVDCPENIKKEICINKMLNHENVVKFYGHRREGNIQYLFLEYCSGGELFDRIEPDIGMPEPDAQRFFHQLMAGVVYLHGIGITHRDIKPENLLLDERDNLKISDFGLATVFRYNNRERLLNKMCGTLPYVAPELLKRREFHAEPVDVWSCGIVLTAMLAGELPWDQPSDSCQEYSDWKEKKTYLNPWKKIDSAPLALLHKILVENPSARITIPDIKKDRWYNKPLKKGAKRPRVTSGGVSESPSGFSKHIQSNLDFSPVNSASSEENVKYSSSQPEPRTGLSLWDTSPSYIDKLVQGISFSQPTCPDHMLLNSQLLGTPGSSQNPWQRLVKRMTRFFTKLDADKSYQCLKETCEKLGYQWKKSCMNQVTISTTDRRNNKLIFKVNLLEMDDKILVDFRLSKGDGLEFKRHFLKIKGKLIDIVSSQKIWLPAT
Description: Inhibition of CHK1 (unknown origin) using peptide substrate S1 and ATP as substrate incubated for 1 hr by HTRF assay

[6] = Selectivity ratio of IC50 for PIM1 (unknown origin) to IC50 for FLT3-ITD mutant (unknown origin)
[7] = Selectivity ratio of IC50 for ALK (unknown origin) to IC50 for FLT3-ITD mutant (unknown origin)
BaF3 [8] = assay: Antiproliferative activity against mouse BaF3 cells harboring FLT3 D835F mutant assessed as reduction in cell viability incubated for 72 hrs by CellTiter 96 Aqueous One Solution Cell Proliferation Assay; format: functional, cell-based
[9] = target: T2, Serine/threonine-protein kinase Chk1 (Homo sapiens) (UniProt O14757); assay: Inhibition of CHK1 in human MV4-11 cells assessed as upregulation of p21 protein expression measured after 90 mins by western blot analysis; format: cell-based; conditions: dose 50-200 nM
T2 sequence (whole entry): T1 sequence (O14757 whole entry)

[10] = target: Receptor-type tyrosine-protein kinase FLT3 (Homo sapiens) (UniProt P36888); assay: Inhibition of FLT3 in human MV4-11 cells assessed as inhibition of STAT5 phosphorylation at Tyr694 residue measured after 90 mins by western blot analysis; format: cell-based; conditions: dose 20-100 nM
[11] = target: Receptor-type tyrosine-protein kinase FLT3 (Homo sapiens) (UniProt P36888); assay: Inhibition of FLT3 in human MV4-11 cells assessed as inhibition of FLT3 phosphorylation measured after 90 mins by western blot analysis; format: cell-based; conditions: dose 20-100 nM
[12] = target: Receptor-type tyrosine-protein kinase FLT3 (Homo sapiens) (UniProt P36888); assay: Inhibition of FLT3 in human MV4-11 cells assessed as inhibition of ERK phosphorylation at Tyr204 residue measured after 90 mins by western blot analysis; format: cell-based; conditions: dose 20-100 nM
[13] = Selectivity ratio of IC50 for PKA (unknown origin) to IC50 for FLT3-ITD mutant (unknown origin)
MV4-11 = assay: cells; conditions: Homo sapiens, MV4-11, 72 h
Description: Antiproliferative activity against human MV4-11 cells assessed as reduction in cell viability incubated for 72 hrs by CellTiter 96 Aqueous One Solution Cell Proliferation Assay

[14] = target: Receptor-type tyrosine-protein kinase FLT3 (Homo sapiens) (UniProt P36888); assay: Inhibition of FLT3 in human MV4-11 cells assessed as inhibition of STAT5 phosphorylation at Tyr694 residue at 20 nM measured after 90 mins by western blot analysis; format: cell-based
[15] = Selectivity ratio of IC50 for EGFR (unknown origin) to IC50 for FLT3-ITD mutant (unknown origin)
[16] = Selectivity ratio of IC50 for PAK1 (unknown origin) to IC50 for FLT3-ITD mutant (unknown origin)
[17] = target: Receptor-type tyrosine-protein kinase FLT3 (Homo sapiens) (UniProt P36888); assay: Inhibition of FLT3 in human MV4-11 cells assessed as inhibition of ERK phosphorylation at Tyr204 residue at 20 nM measured after 90 mins by western blot analysis; format: cell-based
[18] = Acute toxicity in ICR mouse assessed as body weight loss at 300 mg/kg, ig and measured for 7 days; format: organism-based; conditions: in vivo, po, 168 h, time 7 day
[19] = Selectivity ratio of IC50 for ASK1 (unknown origin) to IC50 for FLT3-ITD mutant (unknown origin)
[20] = target: Voltage-gated inwardly rectifying potassium channel KCNH2 (Homo sapiens, UniProt Q12809); assay: Inhibition of hERG expressed in HEK293 cells assessed as fast channel deactivation at 100 uM by whole cell patch clamp analysis; format: toxicity, cell-based; conditions: hek293, 100 µM
Chain of Voltage-gated inwardly rectifying potassium channel KCNH2 (Q12809 whole entry): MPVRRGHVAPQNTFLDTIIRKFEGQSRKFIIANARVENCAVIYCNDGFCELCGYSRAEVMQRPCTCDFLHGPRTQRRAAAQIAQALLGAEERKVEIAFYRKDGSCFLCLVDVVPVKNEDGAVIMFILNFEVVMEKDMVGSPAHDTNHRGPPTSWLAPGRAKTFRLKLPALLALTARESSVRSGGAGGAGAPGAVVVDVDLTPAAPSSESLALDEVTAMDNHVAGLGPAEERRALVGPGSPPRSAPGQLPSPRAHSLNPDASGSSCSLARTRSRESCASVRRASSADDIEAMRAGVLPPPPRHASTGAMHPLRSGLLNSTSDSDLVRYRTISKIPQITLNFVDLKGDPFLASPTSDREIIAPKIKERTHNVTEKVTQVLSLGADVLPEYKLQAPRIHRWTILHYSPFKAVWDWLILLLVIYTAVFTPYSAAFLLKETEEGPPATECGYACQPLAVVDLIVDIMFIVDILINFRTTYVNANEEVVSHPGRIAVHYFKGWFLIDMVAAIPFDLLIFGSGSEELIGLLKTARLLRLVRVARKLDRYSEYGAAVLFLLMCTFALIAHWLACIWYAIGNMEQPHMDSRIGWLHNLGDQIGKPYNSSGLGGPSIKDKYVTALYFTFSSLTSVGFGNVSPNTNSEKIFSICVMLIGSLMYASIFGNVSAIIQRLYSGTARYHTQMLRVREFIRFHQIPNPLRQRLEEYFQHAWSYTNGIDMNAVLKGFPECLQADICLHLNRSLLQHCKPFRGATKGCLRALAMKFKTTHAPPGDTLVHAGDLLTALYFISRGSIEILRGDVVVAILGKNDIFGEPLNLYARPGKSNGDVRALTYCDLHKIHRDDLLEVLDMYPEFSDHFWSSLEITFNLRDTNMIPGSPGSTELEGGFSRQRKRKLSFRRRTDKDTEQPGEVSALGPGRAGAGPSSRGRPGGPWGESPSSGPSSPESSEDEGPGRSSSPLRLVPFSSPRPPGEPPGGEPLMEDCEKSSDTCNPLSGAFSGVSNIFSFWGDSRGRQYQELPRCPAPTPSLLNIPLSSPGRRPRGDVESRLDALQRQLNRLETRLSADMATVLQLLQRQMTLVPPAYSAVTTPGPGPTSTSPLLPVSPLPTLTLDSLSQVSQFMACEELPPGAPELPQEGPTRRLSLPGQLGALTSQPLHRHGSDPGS

[21] = Acute toxicity in ICR mouse assessed as morphological changes in kidney at 300 mg/kg, ig and measured for 7 days by Hematoxylin-Eosin staining based analysis; format: organism-based; conditions: in vivo, po, 168 h, time 7 day
[22] = target: Mitogen-activated protein kinase kinase kinase 7 (Homo sapiens, UniProt O43318); assay: Inhibition of TAK1 (unknown origin) by HTRF assay
Chain of Mitogen-activated protein kinase kinase kinase 7 (O43318 whole entry): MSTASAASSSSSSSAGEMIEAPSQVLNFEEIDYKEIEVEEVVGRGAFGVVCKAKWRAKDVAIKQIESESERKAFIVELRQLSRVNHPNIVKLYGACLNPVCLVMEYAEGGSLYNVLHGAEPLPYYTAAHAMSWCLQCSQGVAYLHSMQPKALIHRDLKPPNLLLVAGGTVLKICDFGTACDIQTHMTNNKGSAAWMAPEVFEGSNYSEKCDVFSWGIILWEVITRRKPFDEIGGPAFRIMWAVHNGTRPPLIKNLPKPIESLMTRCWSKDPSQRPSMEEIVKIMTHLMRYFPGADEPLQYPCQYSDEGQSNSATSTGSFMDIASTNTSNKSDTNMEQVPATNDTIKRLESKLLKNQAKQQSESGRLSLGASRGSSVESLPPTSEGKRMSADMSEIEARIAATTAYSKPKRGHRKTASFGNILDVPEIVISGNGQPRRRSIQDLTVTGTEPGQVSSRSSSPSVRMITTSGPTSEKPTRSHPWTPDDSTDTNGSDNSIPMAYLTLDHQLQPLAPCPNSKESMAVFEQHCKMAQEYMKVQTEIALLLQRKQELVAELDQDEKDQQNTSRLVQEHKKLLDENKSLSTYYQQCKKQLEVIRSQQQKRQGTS

[23] = target: Receptor-type tyrosine-protein kinase FLT3 (Homo sapiens) (UniProt P36888); assay: Inhibition of FLT3 in human MV4-11 cells assessed as inhibition of FLT3 phosphorylation at 20 nM measured after 90 mins by western blot analysis; format: cell-based
[24] = Selectivity ratio of IC50 for LYN (unknown origin) to IC50 for FLT3-ITD mutant (unknown origin)
[25] = Cmax in ICR mouse at 10 mg/kg, po; format: ADME, organism-based; parameters: dose 10 mg/kg, route po; conditions: in vivo
[26] = Selectivity ratio of IC50 for MET (unknown origin) to IC50 for FLT3-ITD mutant (unknown origin)
[27] = Acute toxicity in ICR mouse assessed as morphological changes in heart at 300 mg/kg, ig and measured for 7 days by Hematoxylin-Eosin staining based analysis; format: organism-based; conditions: in vivo, po, 168 h, time 7 day
[28] = Acute toxicity in ICR mouse assessed as morphological changes in spleen at 300 mg/kg, ig and measured for 7 days by Hematoxylin-Eosin staining based analysis; format: organism-based; conditions: in vivo, po, 168 h, time 7 day
[29] = target: Hepatocyte growth factor receptor (Homo sapiens, UniProt P08581); assay: Inhibition of MET (unknown origin) by HTRF assay
Chain of Hepatocyte growth factor receptor (P08581 whole entry): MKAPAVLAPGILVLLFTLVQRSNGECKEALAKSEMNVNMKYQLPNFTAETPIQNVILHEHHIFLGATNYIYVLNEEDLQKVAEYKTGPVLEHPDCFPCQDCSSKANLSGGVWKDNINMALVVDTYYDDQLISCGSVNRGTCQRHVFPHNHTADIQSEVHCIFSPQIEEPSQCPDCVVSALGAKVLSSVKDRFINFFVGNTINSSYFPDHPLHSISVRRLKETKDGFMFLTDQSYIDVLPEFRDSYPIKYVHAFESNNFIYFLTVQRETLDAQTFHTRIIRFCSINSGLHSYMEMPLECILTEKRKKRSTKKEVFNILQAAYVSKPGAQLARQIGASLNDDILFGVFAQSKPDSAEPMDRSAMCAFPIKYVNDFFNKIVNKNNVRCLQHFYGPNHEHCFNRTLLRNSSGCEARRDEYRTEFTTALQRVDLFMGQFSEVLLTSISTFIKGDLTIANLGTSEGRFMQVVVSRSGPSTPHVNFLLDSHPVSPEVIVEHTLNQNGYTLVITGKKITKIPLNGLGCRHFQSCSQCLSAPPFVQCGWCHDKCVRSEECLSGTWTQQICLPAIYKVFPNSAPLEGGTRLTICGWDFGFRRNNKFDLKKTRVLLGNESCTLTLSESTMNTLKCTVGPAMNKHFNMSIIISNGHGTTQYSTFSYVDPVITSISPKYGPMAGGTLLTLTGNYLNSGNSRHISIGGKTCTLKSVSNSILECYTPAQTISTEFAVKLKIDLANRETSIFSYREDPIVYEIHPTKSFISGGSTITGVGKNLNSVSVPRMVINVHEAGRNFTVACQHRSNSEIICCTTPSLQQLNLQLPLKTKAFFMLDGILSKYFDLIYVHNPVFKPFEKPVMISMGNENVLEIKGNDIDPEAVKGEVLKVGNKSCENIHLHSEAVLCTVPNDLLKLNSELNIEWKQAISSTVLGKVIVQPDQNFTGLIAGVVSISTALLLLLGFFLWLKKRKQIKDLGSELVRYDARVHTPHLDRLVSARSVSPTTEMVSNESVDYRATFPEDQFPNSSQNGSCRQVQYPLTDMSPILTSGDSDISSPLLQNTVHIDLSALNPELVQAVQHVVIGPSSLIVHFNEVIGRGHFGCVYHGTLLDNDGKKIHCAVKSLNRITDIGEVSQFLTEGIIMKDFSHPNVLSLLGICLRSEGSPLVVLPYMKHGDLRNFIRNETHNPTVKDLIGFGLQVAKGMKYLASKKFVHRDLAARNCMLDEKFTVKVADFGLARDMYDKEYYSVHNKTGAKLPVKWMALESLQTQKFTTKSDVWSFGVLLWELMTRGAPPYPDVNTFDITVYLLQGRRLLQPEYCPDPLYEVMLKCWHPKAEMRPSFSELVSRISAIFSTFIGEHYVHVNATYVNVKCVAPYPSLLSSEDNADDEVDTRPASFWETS

[30] = AUC (last) in ICR mouse at 10 mg/kg, po; format: ADME, organism-based; parameters: dose 10 mg/kg, route po; conditions: in vivo
JeKo-1 = assay: Antiproliferative activity against human JeKo-1 cells assessed as reduction in cell viability incubated for 72 hrs by CellTiter 96 Aqueous One Solution Cell Proliferation Assay; format: functional, cell-based; conditions: JeKo-1, 72 h
[31] = Selectivity ratio of IC50 for BMX (unknown origin) to IC50 for FLT3-ITD mutant (unknown origin)
MOLM-13 = assay: Antiproliferative activity against human MOLM-13 cells assessed as reduction in cell viability incubated for 72 hrs by CellTiter 96 Aqueous One Solution Cell Proliferation Assay; format: functional, cell-based
[32] = Selectivity ratio of IC50 for AMPK alpha2beta1gamma1 (unknown origin) to IC50 for FLT3-ITD mutant (unknown origin)

Chain of Receptor-type tyrosine-protein kinase FLT3 (P36888 whole entry): as the sequence (P36888 whole entry) above

SMILES: CC(C)(O)CC(=O)N1CCc2cc(Nc3ncc(C(F)(F)F)c(N[C@H]4CC[C@@H](N)CC4)n3)ccc2C1
- IC50 (BaF3 [1]): 8.2 nM
- IC50 [2]: < 10 nM
- IC50 [3]: 91.6 nM
- inhibition [4]: Dose-Dependent Effect
- IC50 [5]: 9.8 nM
- Ratio IC50 [6]: > 100
- Ratio IC50 [7]: > 100
- Activity (BaF3 [8]): Active
- inhibition [9]: Dose-Dependent Effect
- inhibition [10]: Dose-Dependent Effect
- inhibition [11]: Dose-Dependent Effect
- inhibition [12]: Dose-Dependent Effect
- Ratio IC50 [13]: > 100
- IC50 (MV4-11): 0.21 nM
- inhibition [14]: 100%
- Ratio IC50 [15]: > 100
- Ratio IC50 [16]: > 100
- inhibition [17]: 100%
- Activity [18]: Non-Toxic
- Ratio IC50 [19]: > 100
- inhibition (INH) [20]: Active
- Activity [21]: Non-Toxic
- IC50 [22]: 64.3 nM
- inhibition [23]: 100%
- Ratio IC50 [24]: > 100
- Cmax [25]: 571 ng/mL
- Ratio IC50 [26]: > 100
- Activity [27]: Non-Toxic
- Activity [28]: Non-Toxic
- IC50 [29]: > 10000 nM
- AUC(0-t) [30]: 1570 ng·h/mL
- IC50 (JeKo-1): 260 nM
- Ratio IC50 [31]: > 100
- Activity (MOLM-13): Active
- Ratio IC50 [32]: > 100
